Experimental data taken from publication PMC5218480 (PLoS ONE, 2017).

Tested on: MV-4-11 cells
Experiment: Gene expression microarray analysis (Affymetrix PrimeView) and GSEA
Type: cell-based, human
Set-up: RFU PODN (11730768_x_at) / Fold change /veh PODN (11730768_x_at) / RFU LINC00158 (11744669_a_at) / Fold change /veh LINC00158 (11744669_a_at) / RFU DUSP10 (11751237_a_at) / Fold change /veh DUSP10 (11751237_a_at) / RFU ID3 (11757404_x_at) / Fold change /veh ID3 (11757404_x_at) / RFU PLEKHG5 (11737974_s_at) / Fold change /veh PLEKHG5 (11737974_s_at) / RFU LRRC4B (11730491_at) / Fold change /veh LRRC4B (11730491_at) / RFU GIMAP4 (11747438_a_at) / Fold change /veh GIMAP4 (11747438_a_at) / RFU KRT8 (11758183_x_at) / Fold change /veh KRT8 (11758183_x_at) / RFU CNN1 (11734310_a_at) / Fold change /veh CNN1 (11734310_a_at) / RFU VPS37D (11726825_at) / Fold change /veh VPS37D (11726825_at) / RFU C10orf10 (11716522_x_at) / Fold change /veh C10orf10 (11716522_x_at) / RFU KIR2DL2 /// KIR2DL4 /// KIR2DL5A /// KIR2DL5B /// KIR2DS1 /// KIR2DS2 /// KIR2DS3 /// KIR2DS4 /// KIR3DL3 /// KIR3DL3 /// KIR3DS1 (11738374_at) / Fold change /veh KIR2DL2 /// KIR2DL4 /// KIR2DL5A /// KIR2DL5B /// KIR2DS1 /// KIR2DS2 /// KIR2DS3 /// KIR2DS4 /// KIR3DL3 /// KIR3DL3 /// KIR3DS1 (11738374_at) / RFU C1QL1 (11718748_at) / Fold change /veh C1QL1 (11718748_at) / RFU TMPRSS4 (11747572_a_at) / Fold change /veh TMPRSS4 (11747572_a_at) / RFU HAMP (11756126_x_at) / Fold change /veh HAMP (11756126_x_at) / RFU RNFT2 (11725882_a_at) / Fold change /veh RNFT2 (11725882_a_at) / RFU NR4A2 (11747474_a_at) / Fold change /veh NR4A2 (11747474_a_at) / RFU ABCC12 (11746883_a_at) / Fold change /veh ABCC12 (11746883_a_at) / RFU TMEM136 (11760407_x_at) / Fold change /veh TMEM136 (11760407_x_at) / RFU CLDN22 /// WWC2 (11732394_at) / Fold change /veh CLDN22 /// WWC2 (11732394_at) / RFU HLA-DPB1 (11760878_x_at) / Fold change /veh HLA-DPB1 (11760878_x_at) / RFU SPINT1 (11716480_a_at) / Fold change /veh SPINT1 (11716480_a_at) / RFU GAP43 (11754022_s_at) / Fold change /veh GAP43 (11754022_s_at) / RFU A4GNT (11735810_at) / Fold change /veh A4GNT (11735810_at) / RFU PRB3 (11715151_x_at) / Fold change /veh PRB3 (11715151_x_at) / RFU TUBB4B (11761932_at) / Fold change /veh TUBB4B (11761932_at) / RFU CAPN14 (11732068_a_at) / Fold change /veh CAPN14 (11732068_a_at) / RFU TMCC2 (11721928_a_at) / Fold change /veh TMCC2 (11721928_a_at) / RFU IRGQ (11745062_a_at) / Fold change /veh IRGQ (11745062_a_at) / RFU FAM174B (11720279_a_at) / Fold change /veh FAM174B (11720279_a_at) / RFU TMPRSS4 (11748680_a_at) / Fold change /veh TMPRSS4 (11748680_a_at) / RFU FAM212B (11763350_a_at) / Fold change /veh FAM212B (11763350_a_at) / RFU PLEKHG5 (11743358_a_at) / Fold change /veh PLEKHG5 (11743358_a_at) / RFU ZSCAN30 (11745921_a_at) / Fold change /veh ZSCAN30 (11745921_a_at) / RFU CMKLR1 (11741424_a_at) / Fold change /veh CMKLR1 (11741424_a_at) / RFU LOC101060620 /// MAPK8IP1 (11723275_at) / Fold change /veh LOC101060620 /// MAPK8IP1 (11723275_at) / RFU SPTSSB (11747773_x_at) / Fold change /veh SPTSSB (11747773_x_at) / RFU PRSS12 (11739890_at) / Fold change /veh PRSS12 (11739890_at) / RFU BIN1 (11741810_x_at) / Fold change /veh BIN1 (11741810_x_at) / RFU WNT11 (11732464_a_at) / Fold change /veh WNT11 (11732464_a_at) / RFU C10orf10 (11716521_a_at) / Fold change /veh C10orf10 (11716521_a_at) / RFU C5orf56 (11738089_at) / Fold change /veh C5orf56 (11738089_at) / RFU CYB561 (11721691_x_at) / Fold change /veh CYB561 (11721691_x_at) / RFU ANKRD19P (11752326_a_at) / Fold change /veh ANKRD19P (11752326_a_at) / RFU OR2T12 /// OR2T33 /// OR2T8 (11738714_s_at) / Fold change /veh OR2T12 /// OR2T33 /// OR2T8 (11738714_s_at) / RFU VCAN (11748164_a_at) / Fold change /veh VCAN (11748164_a_at) / RFU JSRP1 (11732532_at) / Fold change /veh JSRP1 (11732532_at) / RFU KRTAP10-11 (11738290_x_at) / Fold change /veh KRTAP10-11 (11738290_x_at) / RFU MYO3A (11730013_a_at) / Fold change /veh MYO3A (11730013_a_at) / RFU EBF3 (11725865_a_at) / Fold change /veh EBF3 (11725865_a_at) / RFU CAMK2N1 (11719241_x_at) / Fold change /veh CAMK2N1 (11719241_x_at) / RFU C5orf56 (11738088_a_at) / Fold change /veh C5orf56 (11738088_a_at) / RFU OLFML3 (11715873_a_at) / Fold change /veh OLFML3 (11715873_a_at) / RFU LOC100653217 /// NTM (11731650_a_at) / Fold change /veh LOC100653217 /// NTM (11731650_a_at) / RFU MAPK11 (11762145_a_at) / Fold change /veh MAPK11 (11762145_a_at) / RFU FIZ1 (11724087_x_at) / Fold change /veh FIZ1 (11724087_x_at) / RFU OASL (11726364_x_at) / Fold change /veh OASL (11726364_x_at) / RFU SOX15 (11748057_x_at) / Fold change /veh SOX15 (11748057_x_at) / RFU CD79A (11719716_a_at) / Fold change /veh CD79A (11719716_a_at) / RFU HIST1H1D (11736915_at) / Fold change /veh HIST1H1D (11736915_at) / RFU CASKIN2 (11723855_a_at) / Fold change /veh CASKIN2 (11723855_a_at) / RFU LOC730098 (11760151_x_at) / Fold change /veh LOC730098 (11760151_x_at) / RFU OR4N2 (11742367_at) / Fold change /veh OR4N2 (11742367_at) / RFU PRRT2 (11749266_a_at) / Fold change /veh PRRT2 (11749266_a_at) / RFU SNX32 (11753110_a_at) / Fold change /veh SNX32 (11753110_a_at) / RFU CDHR5 (11726645_a_at) / Fold change /veh CDHR5 (11726645_a_at) / RFU RCAN1 (11760418_a_at) / Fold change /veh RCAN1 (11760418_a_at) / RFU FAM167A (11723789_a_at) / Fold change /veh FAM167A (11723789_a_at) / RFU FAM26E (11764081_at) / Fold change /veh FAM26E (11764081_at) / RFU ISYNA1 (11749810_s_at) / Fold change /veh ISYNA1 (11749810_s_at) / RFU ACY1 (11761880_at) / Fold change /veh ACY1 (11761880_at) / RFU 11764098_at / Fold change /veh 11764098_at / RFU SAMD14 (11745864_x_at) / Fold change /veh SAMD14 (11745864_x_at) / RFU NPB (11741838_a_at) / Fold change /veh NPB (11741838_a_at) / RFU TMPRSS6 (11731388_a_at) / Fold change /veh TMPRSS6 (11731388_a_at) / RFU KRTAP10-2 (11738614_at) / Fold change /veh KRTAP10-2 (11738614_at) / RFU ARHGAP8 /// PRR5-ARHGAP8 (11727945_x_at) / Fold change /veh ARHGAP8 /// PRR5-ARHGAP8 (11727945_x_at) / RFU KRTAP5-7 /// NADSYN1 (11734609_at) / Fold change /veh KRTAP5-7 /// NADSYN1 (11734609_at) / RFU RASL12 (11751679_a_at) / Fold change /veh RASL12 (11751679_a_at) / RFU CDKN2B (11736163_a_at) / Fold change /veh CDKN2B (11736163_a_at) / RFU PRF1 (11729649_at) / Fold change /veh PRF1 (11729649_at) / RFU, ZNF638 /// ZNF638-IT1 / Fold change vs veh, ZNF638 /// ZNF638-IT1 / RFU, PANK3 / Fold change vs veh, PANK3 / RFU, SH3YL1 / Fold change vs veh, SH3YL1 / RFU, ZEB2 / Fold change vs veh, ZEB2 / RFU, NRIP1 / Fold change vs veh, NRIP1 / RFU, PTTG1IP / Fold change vs veh, PTTG1IP / RFU, CAPN2 / Fold change vs veh, CAPN2 / RFU, MED14 / Fold change vs veh, MED14 / RFU, SNORA58 / Fold change vs veh, SNORA58 / RFU, C1orf63 / Fold change vs veh, C1orf63 / RFU, LRRFIP1 / Fold change vs veh, LRRFIP1 / RFU, NDUFAF7 / Fold change vs veh, NDUFAF7 / RFU, SLC12A2 / Fold change vs veh, SLC12A2 / RFU, IBTK / Fold change vs veh, IBTK / RFU, ESF1 / Fold change vs veh, ESF1 / Fold change vs veh, TMEM50B / RFU, TAOK1 / Fold change vs veh, TAOK1 / RFU, ACBD3 / Fold change vs veh, ACBD3 / RFU, TMA16 / Fold change vs veh, TMA16 / RFU, RWDD3 / Fold change vs veh, RWDD3 / RFU, BCAT1 / Fold change vs veh, BCAT1 / RFU, EDEM3 / Fold change vs veh, EDEM3 / RFU, TMEM33 / Fold change vs veh, TMEM33 / RFU, WDR75 / Fold change vs veh, WDR75 / RFU, AHCTF1 / Fold change vs veh, AHCTF1 / RFU, TFRC / Fold change vs veh, TFRC / RFU, ZDHHC17 / Fold change vs veh, ZDHHC17 / RFU, NOM1 / Fold change vs veh, NOM1 / RFU, ARL8B / Fold change vs veh, ARL8B / RFU, ZBTB11 / Fold change vs veh, ZBTB11 / RFU, TAMM41 / Fold change vs veh, TAMM41 / RFU, KIAA1704 /// LOC100996395 / Fold change vs veh, KIAA1704 /// LOC100996395 / RFU, ING1 / Fold change vs veh, ING1 / RFU, TRMT61B / Fold change vs veh, TRMT61B / RFU, FUBP3 / Fold change vs veh, FUBP3 / RFU, TP53 / Fold change vs veh, TP53 / RFU, TNKS2 / Fold change vs veh, TNKS2 / RFU, ZFP14 / Fold change vs veh, ZFP14 / RFU, ACTR2 / Fold change vs veh, ACTR2 / RFU, PPP3R1 / Fold change vs veh, PPP3R1 / RFU, PIK3R1 / Fold change vs veh, PIK3R1 / RFU, HNRNPA1 / Fold change vs veh, HNRNPA1 / RFU, RNF170 / Fold change vs veh, RNF170 / RFU, ZNF28 / Fold change vs veh, ZNF28 / RFU, RNGTT / Fold change vs veh, RNGTT / RFU, OGT / Fold change vs veh, OGT / RFU, BRD1 / Fold change vs veh, BRD1 / RFU, MARS / Fold change vs veh, MARS / RFU, ZNF655 / Fold change vs veh, ZNF655 / RFU, FAHD1 / Fold change vs veh, FAHD1 / RFU, BDP1 / Fold change vs veh, BDP1 / RFU, LRRCC1 / Fold change vs veh, LRRCC1 / RFU, ARID1A / Fold change vs veh, ARID1A / RFU, ZNF146 / Fold change vs veh, ZNF146 / RFU, ZNF330 / Fold change vs veh, ZNF330 / RFU, GPN3 / Fold change vs veh, GPN3 / RFU, C9orf123 / Fold change vs veh, C9orf123 / RFU, N4BP2L2 / Fold change vs veh, N4BP2L2 / RFU, ARFIP1 / Fold change vs veh, ARFIP1 / RFU, FAM179B / Fold change vs veh, FAM179B / RFU, BCL10 / Fold change vs veh, BCL10 / RFU, UHRF1BP1L / Fold change vs veh, UHRF1BP1L / RFU, BET1 / Fold change vs veh, BET1 / RFU, CNOT2 / Fold change vs veh, CNOT2 / RFU, ZNF268 / Fold change vs veh, ZNF268 / Fold change vs veh, ZNF507 / RFU, DGCR2 / Fold change vs veh, DGCR2 / RFU, WDSUB1 / Fold change vs veh, WDSUB1 / Fold change vs veh, HSP90B1 /// MIR3652 / RFU, ADSS / Fold change vs veh, ADSS / RFU, GK / Fold change vs veh, GK / RFU, ZNF148 / Fold change vs veh, ZNF148 / RFU, TAF9 / Fold change vs veh, TAF9 / RFU, SLC1A5 / Fold change vs veh, SLC1A5 / RFU, SLMO2 / Fold change vs veh, SLMO2 / RFU, ABCC4 / Fold change vs veh, ABCC4 / RFU, LOC101060439 /// RAP1B / Fold change vs veh, LOC101060439 /// RAP1B / RFU, RFX7 / Fold change vs veh, RFX7 / RFU, GTPBP10 / Fold change vs veh, GTPBP10 / RFU, CNEP1R1 / Fold change vs veh, CNEP1R1 / RFU, BIVM-ERCC5 /// ERCC5 / Fold change vs veh, BIVM-ERCC5 /// ERCC5 / RFU, ILF3 / Fold change vs veh, ILF3 / RFU 11762660_at / Fold change /veh 11762660_at / RFU VCAN (11757783_s_at) / Fold change /veh VCAN (11757783_s_at) / RFU DDX43 (11728927_at) / Fold change /veh DDX43 (11728927_at) / RFU KRT8 (11758188_x_at) / Fold change /veh KRT8 (11758188_x_at) / RFU NKD1 (11759106_at) / Fold change /veh NKD1 (11759106_at) / RFU SRD5A1 (11742802_a_at) / Fold change /veh SRD5A1 (11742802_a_at) / RFU TPSAB1 /// TPSB2 (11721975_s_at) / Fold change /veh TPSAB1 /// TPSB2 (11721975_s_at) / RFU GSTM3 (11746129_a_at) / Fold change /veh GSTM3 (11746129_a_at) / RFU IL23R (11737362_x_at) / Fold change /veh IL23R (11737362_x_at) / RFU TMEM51 (11727254_a_at) / Fold change /veh TMEM51 (11727254_a_at) / RFU PIWIL2 (11732686_x_at) / Fold change /veh PIWIL2 (11732686_x_at) / RFU ORM1 (11744905_x_at) / Fold change /veh ORM1 (11744905_x_at) / RFU CCDC152 (11743942_at) / Fold change /veh CCDC152 (11743942_at) / RFU ECM1 (11717891_a_at) / Fold change /veh ECM1 (11717891_a_at) / RFU IL23R (11748794_a_at) / Fold change /veh IL23R (11748794_a_at) / RFU TNFAIP8L3 (11732012_x_at) / Fold change /veh TNFAIP8L3 (11732012_x_at) / RFU MBOAT4 (11741988_at) / Fold change /veh MBOAT4 (11741988_at) / RFU 11764193_at / Fold change /veh 11764193_at / RFU TMEM53 (11763286_at) / Fold change /veh TMEM53 (11763286_at) / RFU MAGEB2 (11727129_at) / Fold change /veh MAGEB2 (11727129_at) / RFU TMEM200A (11744735_a_at) / Fold change /veh TMEM200A (11744735_a_at) / RFU CCDC152 (11751479_a_at) / Fold change /veh CCDC152 (11751479_a_at) / RFU FAM211A (11726209_a_at) / Fold change /veh FAM211A (11726209_a_at) / RFU RGS16 (11746705_a_at) / Fold change /veh RGS16 (11746705_a_at) / RFU VCAN (11755009_s_at) / Fold change /veh VCAN (11755009_s_at) / RFU RHOB (11743442_s_at) / Fold change /veh RHOB (11743442_s_at) / RFU RGS16 (11720943_a_at) / Fold change /veh RGS16 (11720943_a_at) / RFU RGS16 (11720944_at) / Fold change /veh RGS16 (11720944_at) / RFU, VPS4B / Fold change vs veh, VPS4B / RFU, CREB1 / Fold change vs veh, CREB1 / RFU, DNAJC13 / Fold change vs veh, DNAJC13 / RFU, GNAQ / Fold change vs veh, GNAQ / RFU, CDK5R1 / Fold change vs veh, CDK5R1 / RFU, ZRANB3 / Fold change vs veh, ZRANB3 / RFU, CUL4A / Fold change vs veh, CUL4A / RFU, CCNY / Fold change vs veh, CCNY / RFU, UFL1 / Fold change vs veh, UFL1 / RFU, COG3 / Fold change vs veh, COG3 / RFU, DIAPH2 / Fold change vs veh, DIAPH2 / RFU, SKA2 / Fold change vs veh, SKA2 / RFU, AFF3 / Fold change vs veh, AFF3 / RFU, LMF1 / Fold change vs veh, LMF1 / RFU, IPO11 / Fold change vs veh, IPO11 / RFU, DFFB / Fold change vs veh, DFFB / RFU, FOXP1 / Fold change vs veh, FOXP1 / RFU, CARD8 / Fold change vs veh, CARD8 / RFU, STRN3 / Fold change vs veh, STRN3 / RFU, ADK / Fold change vs veh, ADK / RFU, RASSF2 / Fold change vs veh, RASSF2 / RFU, WIPF1 / Fold change vs veh, WIPF1 / RFU, LARP1B / Fold change vs veh, LARP1B / RFU, RASA1 / Fold change vs veh, RASA1 / RFU, RB1 / Fold change vs veh, RB1 / RFU, PPFIA1 / Fold change vs veh, PPFIA1 / RFU, MAT2A / Fold change vs veh, MAT2A / RFU, CCT5 / Fold change vs veh, CCT5 / RFU, WDR92 / Fold change vs veh, WDR92 / RFU, CUX1 / Fold change vs veh, CUX1 / RFU, TTC7A / Fold change vs veh, TTC7A / RFU, TMEM135 / Fold change vs veh, TMEM135 / RFU, DEPTOR / Fold change vs veh, DEPTOR / RFU, CPM / Fold change vs veh, CPM / RFU, DNAJB6 / Fold change vs veh, DNAJB6 / RFU, CACNA2D3 / Fold change vs veh, CACNA2D3 / RFU, DTX4 / Fold change vs veh, DTX4 / RFU, TFCP2 / Fold change vs veh, TFCP2 / RFU, GMCL1 /// GMCL1P1 / Fold change vs veh, GMCL1 /// GMCL1P1 / RFU, AEBP2 / Fold change vs veh, AEBP2 / RFU, SNHG1 /// SNORD22 /// SNORD25 /// SNORD26 /// SNORD27 /// SNORD28 /// SNORD29 /// SNORD31 / Fold change vs veh, SNHG1 /// SNORD22 /// SNORD25 /// SNORD26 /// SNORD27 /// SNORD28 /// SNORD29 /// SNORD31 / Fold change (Aza/veh), C12orf56 (ProbeSet 11735607_a_at) / Fold change (ACY-1035/veh), C12orf56 (ProbeSet 11735607_a_at) / Fold change (Aza/veh), FGFR1OP (ProbeSet 11751329_s_at) / Fold change (ACY-1035/veh), FGFR1OP (ProbeSet 11751329_s_at) / Fold change (Aza/veh), VPS36 (ProbeSet 11739960_a_at) / Fold change (ACY-1035/veh), VPS36 (ProbeSet 11739960_a_at) / RFU SYPL1 (11715823_x_at) / Fold change /veh SYPL1 (11715823_x_at) / RFU IGFBP7 (11715501_s_at) / Fold change /veh IGFBP7 (11715501_s_at) / RFU REEP3 (11722064_at) / Fold change /veh REEP3 (11722064_at) / RFU IGLL1 (11728026_x_at) / Fold change /veh IGLL1 (11728026_x_at): dose or concentration left out as unconfirmed
Details: ProbeSet 11738335_x_at; LIST B

Nc1ncn([C@@H]2O[C@H](CO)[C@@H](O)[C@H]2O)c(=O)n1 [azacitidine]
RFU, TP53: 77.85 RFU
